Some test systems named below: ACHN; BT-549; CCRF-CEM; DU-145; HCC 2998; HT-29; KM12; NCI-H226; NCI-H23; NCI-H460; NCI-H522; OVCAR-3; SF-268; SF-295; SK-OV-3; SR; SW-620; TK-10; A549; T47D.
Holding throughout (test): growth of human tumour cells (NCI), 48 h

Structures are written as SMILES. Structures can show the parent of a compound that is named as a salt.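 Tested at 5 concentrations; 48 h exposure; 96-well plates; endpoints linearly interpolated, else capped at highest concentration. GI50: concentration for 50% inhibition of growth.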 Calls of active or inactive are those of the source. Rule as the data show it: active = GI50 up to about 1.1 µM and inactive = higher.

With `O=C1NC(=S)N/C1=C\c1ccc(Br)s1`, the GI50 in the assay with ACHN was > 100 µM (inactive); with BT-549 it was 40.4 µM (inactive); in the assay on CCRF-CEM, 25.3 µM (inactive); with DU-145 it was > 100 µM (inactive); in the assay on HCC 2998, 57.8 µM (inactive); in the assay on HT-29 it was 85.1 µM (inactive). The GI50 in the assay with KM12 was > 100 µM (inactive); in the assay with NCI-H226, 84.9 µM (inactive); in the assay with NCI-H23 it was > 100 µM (inactive); in the assay on NCI-H460, 70.5 µM (inactive); in the assay on NCI-H522 it was 82.8 µM (inactive); in the assay with OVCAR-3, 71.8 µM (inactive). Moreover, the GI50 in the assay on SF-268 is > 100 µM (inactive); with SF-295 it was > 100 µM (inactive); in the assay with SK-OV-3 it was > 100 µM (inactive); in the assay on SR it was 33.4 µM (inactive); in the assay on SW-620, > 100 µM (inactive); with TK-10, 52 µM (inactive).

In the case of `C=CC(=O)Nc1ccc(NC(=O)C=C)c2c1C(=O)c1ccccc1C2=O`, the GI50 was > 100 µM (inactive) in the assay on A549; 61.7 µM (inactive) in the assay on ACHN; 29.9 µM (inactive) in the assay on BT-549; > 100 µM (inactive) in the assay on HCC 2998; 45.5 µM (inactive) in the assay on HT-29; 12 µM (inactive) in the assay on KM12. The GI50 was 48.6 µM (inactive) in the assay with NCI-H23; > 100 µM (inactive) in the assay on NCI-H460; 16.6 µM (inactive) with NCI-H522; 35.6 µM (inactive) in the assay with OVCAR-3; 10.8 µM (inactive) in the assay with SF-295; 28.1 µM (inactive) in the assay with SR. Moreover, the values for the GI50 with SW-620, in the assay on T47D and with TK-10 were 26.4 µM (inactive), > 100 µM (inactive) and 23.2 µM (inactive), respectively.

`[N-]=[N+]=Nc1c(Cc2ccccc2)c(Cl)nc2ccccc12`: the GI50 in the assay with A549 is 36.3 µM (inactive); in the assay with ACHN it was 25.1 µM (inactive); in the assay with CCRF-CEM, 39.8 µM (inactive); with DU-145, 42.8 µM (inactive); in the assay on HCC 2998 it was 49.4 µM (inactive); in the assay with HT-29, 31.6 µM (inactive). The GI50 in the assay on KM12 was 16.3 µM (inactive); in the assay with NCI-H226, 16 µM (inactive); in the assay with NCI-H23, 28.8 µM (inactive); in the assay on NCI-H460 it was 35.4 µM (inactive); in the assay with NCI-H522, 27.5 µM (inactive); in the assay on OVCAR-3 it was 12.5 µM (inactive). The GI50 was 33.6 µM (inactive) in the assay with SF-268; 22.2 µM (inactive) in the assay with SF-295; 53 µM (inactive) in the assay with SK-OV-3; 33.4 µM (inactive) in the assay with SW-620; 32.6 µM (inactive) in the assay on T47D; 23.8 µM (inactive) in the assay on TK-10.

In the case of `O=C(O)C1C2C=CC(C2)C1c1ccccc1` (configuration not stated), the GI50 in the assay with A549, in the assay with ACHN, in the assay on CCRF-CEM, with DU-145, in the assay on HCC 2998 and in the assay with HT-29 was > 100 µM (inactive) each time. In addition, the GI50 in the assay with KM12, in the assay on NCI-H226, with NCI-H23, in the assay with NCI-H460, in the assay with OVCAR-3 and in the assay with SF-268 was > 100 µM (inactive) in each case. For the same molecule, the GI50 in the assay with SF-295, with SK-OV-3, in the assay on SR, with SW-620, in the assay with T47D and with TK-10 was > 100 µM (inactive) each time.

`CC(C)(C)[Si](C)(C)OC1/C(=C/C#N)C(n2ccc(=O)[nH]c2=O)OC1CO` (configuration not stated): the GI50 in the assay with A549, in the assay with ACHN, with DU-145, in the assay with HT-29, in the assay on KM12 and in the assay on NCI-H23 was > 100 µM (inactive) each time. Besides, the GI50 with NCI-H460, in the assay with NCI-H522, with OVCAR-3, in the assay on SF-268, in the assay with SF-295 and in the assay on SK-OV-3 was > 100 µM (inactive) throughout. Further, the GI50 with SR is 42.1 µM (inactive); in the assay on SW-620, > 100 µM (inactive); in the assay with T47D, > 100 µM (inactive); in the assay on TK-10, > 100 µM (inactive).

Turning to `COc1ccc(C(OCC2OC(n3ccc(NC(=O)c4ccccc4)nc3=O)C(O)C2O)(c2ccccc2)c2ccccc2)cc1` (configuration not stated), the GI50 with A549 was 4.06 µM (inactive); with ACHN, 2.9 µM (inactive); in the assay on CCRF-CEM, 2.26 µM (inactive); with DU-145 it was 3.37 µM (inactive); in the assay on HCC 2998, 3.4 µM (inactive); in the assay on HT-29 it was 1.53 µM (inactive). The GI50 in the assay with KM12 is 21.1 µM (inactive); with NCI-H226 it was 2.61 µM (inactive); in the assay with NCI-H23, 1.32 µM (inactive); in the assay with NCI-H460, 1.98 µM (inactive); in the assay with NCI-H522 it was 2.48 µM (inactive); with OVCAR-3, 1.69 µM (inactive). Besides, the GI50 in the assay with SF-268 is 5.18 µM (inactive); with SF-295, 1.95 µM (inactive); in the assay on SK-OV-3 it was 7.28 µM (inactive); in the assay with SR, 2.39 µM (inactive); in the assay with SW-620, 3.13 µM (inactive); with T47D, 3.54 µM (inactive).

Regarding `C[C@@H]1CCC2C(C)(C)C(/C=C\C=O)C3(C)OC213` (some centres not stated), the GI50 in the assay on A549 was > 100 µM (inactive); in the assay with ACHN, 71.4 µM (inactive); in the assay on BT-549, 34.8 µM (inactive); in the assay with DU-145 it was 29.1 µM (inactive); in the assay with HCC 2998, 48.5 µM (inactive); in the assay with HT-29 it was 26.4 µM (inactive). The GI50 with KM12 is 36.1 µM (inactive); in the assay on NCI-H23 it was 35.6 µM (inactive); with NCI-H460 it was 42 µM (inactive); in the assay on NCI-H522, 46 µM (inactive); with OVCAR-3, 33.4 µM (inactive); in the assay on SF-268, 27.3 µM (inactive). In addition, the GI50 in the assay on SF-295 is 35.1 µM (inactive); in the assay with SK-OV-3, 44.6 µM (inactive); in the assay with SW-620 it was 40.9 µM (inactive); with TK-10, 72.6 µM (inactive).

As for `CCN1CCCC(Nc2cc(C)nc(NC(=N)Nc3ccc(Cl)c(Cl)c3)n2)C1` (configuration not stated), the GI50 with A549 is 1.91 µM (inactive); in the assay on ACHN, 2.32 µM (inactive); in the assay on BT-549 it was 1.64 µM (inactive); in the assay with CCRF-CEM it was 0.63 µM (active); in the assay with DU-145, 4.43 µM (inactive); with HCC 2998 it was 0.551 µM (active). The GI50 in the assay on HT-29 is 3.06 µM (inactive); with KM12 it was 1.85 µM (inactive); in the assay on NCI-H23 it was 1.77 µM (inactive); in the assay on NCI-H460 it was 1.26 µM (inactive); in the assay with NCI-H522, 1.24 µM (inactive); in the assay on OVCAR-3 it was 1.67 µM (inactive). Besides, the GI50 was 1.96 µM (inactive) in the assay with SF-268; 1.07 µM (active) in the assay on SF-295; 2.78 µM (inactive) in the assay on SK-OV-3; 1.2 µM (inactive) in the assay with SR; 1.69 µM (inactive) in the assay with TK-10.

For the molecule `C=C1c2nc3ccccc3n2C=C(c2ccccc2)N1c1ccc(OC)cc1`, the GI50 in the assay with A549 was 18.5 µM (inactive); in the assay with ACHN, 13 µM (inactive); in the assay with BT-549, 13.5 µM (inactive); with CCRF-CEM, 22.8 µM (inactive); in the assay on DU-145 it was 26.4 µM (inactive); in the assay with KM12, 11.4 µM (inactive). The GI50 in the assay with NCI-H226 is 11 µM (inactive); with NCI-H23, 11.4 µM (inactive); in the assay on NCI-H460 it was 11.7 µM (inactive); in the assay with NCI-H522, 1.63 µM (inactive); in the assay on OVCAR-3, 57.8 µM (inactive); in the assay with SF-295, 10.7 µM (inactive). Besides, the GI50 in the assay with SK-OV-3 was 34.6 µM (inactive); with SR it was 17.7 µM (inactive); in the assay on SW-620, 47.5 µM (inactive); in the assay with TK-10, 12.5 µM (inactive).

Regarding `Cc1cc(N=C2C=C(Br)C(=O)C(Br)=C2)cc(CN(CC(=O)O)CC(=O)O)c1O`, the GI50 with A549, with ACHN, in the assay with CCRF-CEM, in the assay on DU-145, in the assay with HCC 2998 and with HT-29 was > 100 µM (inactive) throughout. In addition, the GI50 in the assay with NCI-H226, in the assay with NCI-H23, in the assay with NCI-H460, with NCI-H522, in the assay with OVCAR-3 and with SF-268 was > 100 µM (inactive) in each case. The GI50 with SF-295, with SK-OV-3, in the assay with SR, with SW-620 and in the assay with T47D was > 100 µM (inactive) each time.

For the molecule `CN(C)Cc1cc(/C=C/C(=O)c2ccc(Br)cc2)cc(CN(C)C)c1O`, the GI50 with A549 is 29.2 µM (inactive); with ACHN, 11.5 µM (inactive); in the assay with BT-549, 15.1 µM (inactive); in the assay with CCRF-CEM, 4.06 µM (inactive); with DU-145, 15.7 µM (inactive); in the assay with HCC 2998 it was 14 µM (inactive). The GI50 in the assay on HT-29 was 18.8 µM (inactive); with KM12 it was 13.4 µM (inactive); in the assay on NCI-H460, 19.3 µM (inactive); in the assay on OVCAR-3 it was 20.8 µM (inactive); in the assay on SF-268, 14.8 µM (inactive); in the assay on SF-295, 21.8 µM (inactive). Further, the GI50 with SK-OV-3 was 29.8 µM (inactive); in the assay on SW-620, 19.1 µM (inactive); in the assay with T47D, 18.5 µM (inactive); in the assay with TK-10, 12.8 µM (inactive).

On to `CN[C@@H](C)[C@@H](O)c1ccccc1` [PSEUDOEPHEDRINE HYDROCHLORIDE], for which the GI50 in the assay on A549 was > 100 µM (inactive); in the assay on ACHN it was > 100 µM (inactive); in the assay on CCRF-CEM, > 10 µM (inactive); in the assay on DU-145, > 100 µM (inactive); in the assay with HCC 2998, > 100 µM (inactive); in the assay with HT-29, > 100 µM (inactive). For the same molecule, the GI50 was > 100 µM (inactive) in the assay with KM12; > 100 µM (inactive) with NCI-H226; > 100 µM (inactive) in the assay with NCI-H23; > 100 µM (inactive) in the assay with NCI-H460; > 10 µM (inactive) in the assay with NCI-H522; > 10 µM (inactive) in the assay on OVCAR-3. In addition, the GI50 in the assay with SF-268, with SF-295, with SW-620, with T47D and in the assay with TK-10 was > 100 µM (inactive) throughout.
